Data published in ChEMBL document CHEMBL1909046, “DrugMatrix in vitro pharmacology data”.
Where a SMILES comes first, the peptide text is derived from it. Bridges are numbered along the chain shown (N, C = ends). [ ]: non-standard residue; d: D form. The star is where a group is joined. Ileψ(thiazoline)Cys = CC[C@H](C)[C@H](N)C1=N[C@H](C(=O)*)CS1; dOrn = NCCC[C@@H](N)C(=O)O

Legend:
[1] = target: Cytochrome P450 2C9 (Homo sapiens, UniProt P11712); settings: bti-tn-5b1-4; also: in other assays of this panel Not Active means under 50% inhibition at 10 µM
[2] = target: Delta-type opioid receptor (Homo sapiens, UniProt P41143); assay type: cell membranes, HEK293, Membrane; settings: hek293; also: in other assays of this panel Not Active means under 50% inhibition at 10 µM
[3] = target: T1, B2 bradykinin receptor (Homo sapiens, UniProt P30411); assay type: cell membranes, Membrane; settings: chem-1; also: in other assays of this panel Not Active means under 50% inhibition at 10 µM
T1 sequence (P30411 whole entry): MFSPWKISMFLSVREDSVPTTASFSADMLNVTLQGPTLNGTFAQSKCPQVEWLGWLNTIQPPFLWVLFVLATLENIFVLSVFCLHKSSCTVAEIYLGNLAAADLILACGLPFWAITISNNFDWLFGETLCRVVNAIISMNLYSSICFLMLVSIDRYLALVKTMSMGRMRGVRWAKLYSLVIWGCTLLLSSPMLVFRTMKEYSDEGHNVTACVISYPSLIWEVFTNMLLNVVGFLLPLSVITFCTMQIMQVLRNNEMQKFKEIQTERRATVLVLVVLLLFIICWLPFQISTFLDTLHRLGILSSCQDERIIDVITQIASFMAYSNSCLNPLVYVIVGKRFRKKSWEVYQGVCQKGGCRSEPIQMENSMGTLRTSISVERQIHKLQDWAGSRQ

[4] = target: T2, Type-2 angiotensin II receptor (Homo sapiens, UniProt P50052); assay type: cell-based; settings: cho-k1; also: in other assays of this panel Not Active means under 50% inhibition at 10 µM
T2 sequence (P50052 whole entry): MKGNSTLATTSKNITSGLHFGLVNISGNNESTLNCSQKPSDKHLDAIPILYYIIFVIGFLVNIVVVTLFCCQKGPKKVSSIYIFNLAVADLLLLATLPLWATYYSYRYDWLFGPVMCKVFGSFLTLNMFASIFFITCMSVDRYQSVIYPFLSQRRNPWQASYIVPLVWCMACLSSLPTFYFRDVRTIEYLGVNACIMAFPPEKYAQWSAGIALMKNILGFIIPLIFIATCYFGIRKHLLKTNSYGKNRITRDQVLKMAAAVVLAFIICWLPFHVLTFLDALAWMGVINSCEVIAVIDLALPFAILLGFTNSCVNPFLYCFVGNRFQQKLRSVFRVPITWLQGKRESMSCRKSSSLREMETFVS

[5] = target: Cannabinoid receptor 1 (Homo sapiens, UniProt P21554); assay type: cell membranes, Membrane; settings: chem-1; also: in other assays of this panel Not Active means under 50% inhibition at 10 µM
[6] = target: T3, Thromboxane-A synthase (Homo sapiens, UniProt P24557); assay: biochemical; assay type: tissue-based, Platelet; settings: platelet
T3 sequence (P24557 whole entry): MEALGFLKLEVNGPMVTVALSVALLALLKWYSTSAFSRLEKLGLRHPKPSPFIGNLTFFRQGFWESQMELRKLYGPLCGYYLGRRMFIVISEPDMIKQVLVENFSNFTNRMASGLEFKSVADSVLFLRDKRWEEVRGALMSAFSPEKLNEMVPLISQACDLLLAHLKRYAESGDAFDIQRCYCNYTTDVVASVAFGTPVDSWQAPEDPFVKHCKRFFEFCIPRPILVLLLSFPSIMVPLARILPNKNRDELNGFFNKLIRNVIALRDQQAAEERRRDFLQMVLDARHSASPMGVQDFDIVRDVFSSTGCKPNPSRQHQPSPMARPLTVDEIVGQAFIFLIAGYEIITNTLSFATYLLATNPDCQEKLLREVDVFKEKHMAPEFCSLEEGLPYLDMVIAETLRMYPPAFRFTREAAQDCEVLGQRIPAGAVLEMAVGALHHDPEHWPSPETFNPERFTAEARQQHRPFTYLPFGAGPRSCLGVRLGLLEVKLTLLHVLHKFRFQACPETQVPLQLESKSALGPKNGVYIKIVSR

[7] = target: Carbonic anhydrase 2 (Homo sapiens, UniProt P00918); assay: DRUGMATRIX: Carbonic Anhydrase II enzyme inhibition (substrate: 4-Nitrophenyl acetate (4-NPA)); assay type: tissue-based, Erythrocyte; settings: erythrocyte; Not Active = under 50% inhibition at 10 µM
[8] = target: C-C chemokine receptor type 5 (Homo sapiens, UniProt P51681); assay type: cell membranes, Membrane; settings: hek293; also: in other assays of this panel Not Active means under 50% inhibition at 10 µM
[9] = target: Epidermal growth factor receptor (Homo sapiens, UniProt P00533); assay: DRUGMATRIX: Protein Tyrosine Kinase, EGF Receptor enzyme inhibition (substrate: Poly(Glu:Tyr)); assay type: cell-based, Insect cells; settings: insect cells; Not Active = under 50% inhibition at 10 µM
[10] = target: Melanocortin receptor 5 (Homo sapiens, UniProt P33032); assay type: cell membranes, HEK293, Membrane; settings: hek293; also: in other assays of this panel Not Active means under 50% inhibition at 10 µM
[11] = DRUGMATRIX: Phosphodiesterase PDE3 enzyme inhibition (substrate: [3H]cAMP + cAMP); assay type: tissue-based, Homo sapiens; settings: platelet; Not Active = under 50% inhibition at 10 µM
[12] = target: Kappa-type opioid receptor (Homo sapiens, UniProt P41145); assay: DRUGMATRIX: Opiate kappa (OP2, KOP) radioligand binding (ligand: [3H] Diprenorphine); assay type: cell membranes, HEK293, Membrane; settings: hek293; Not Active = under 50% inhibition at 10 µM
[13] = target: Protein kinase C alpha type (Homo sapiens, UniProt P17252); assay type: cell-based; settings: sf9
[14] = target: T4, Amine oxidase [flavin-containing] A (Homo sapiens, UniProt P21397); assay: DRUGMATRIX: Monoamine Oxidase MAO-A enzyme inhibition (substrate: Kynuramine); design: species or system BTI-TN-5B1-4; settings: bti-tn-5b1-4; Not Active = under 50% inhibition at 10 µM
T4 sequence (P21397 whole entry): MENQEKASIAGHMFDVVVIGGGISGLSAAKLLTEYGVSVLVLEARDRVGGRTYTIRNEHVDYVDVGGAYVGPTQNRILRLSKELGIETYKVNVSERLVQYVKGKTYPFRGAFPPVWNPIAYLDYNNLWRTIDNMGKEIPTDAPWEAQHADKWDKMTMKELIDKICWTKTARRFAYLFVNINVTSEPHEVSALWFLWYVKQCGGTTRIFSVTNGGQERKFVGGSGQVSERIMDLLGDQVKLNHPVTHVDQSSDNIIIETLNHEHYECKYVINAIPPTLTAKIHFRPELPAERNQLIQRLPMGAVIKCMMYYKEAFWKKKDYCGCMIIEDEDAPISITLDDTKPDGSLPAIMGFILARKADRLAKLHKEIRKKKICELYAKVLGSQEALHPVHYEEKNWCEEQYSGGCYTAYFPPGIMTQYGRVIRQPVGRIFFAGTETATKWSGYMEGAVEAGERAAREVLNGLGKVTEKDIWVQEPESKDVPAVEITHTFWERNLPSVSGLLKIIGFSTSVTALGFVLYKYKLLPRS

[15] = target: Sodium-dependent noradrenaline transporter (Homo sapiens, UniProt P23975); assay: DRUGMATRIX: Norepinephrine Transporter radioligand binding (ligand: [125I] RTI-55); assay type: cell membranes, MDCK, Membrane; settings: mdck; Not Active = under 50% inhibition at 10 µM
[16] = target: Prostaglandin G/H synthase 1 (Homo sapiens, UniProt P23219); assay: biochemical; assay type: tissue-based, Platelet; settings: platelet
Prostaglandin G/H synthase 1, sequence (P23219 whole entry): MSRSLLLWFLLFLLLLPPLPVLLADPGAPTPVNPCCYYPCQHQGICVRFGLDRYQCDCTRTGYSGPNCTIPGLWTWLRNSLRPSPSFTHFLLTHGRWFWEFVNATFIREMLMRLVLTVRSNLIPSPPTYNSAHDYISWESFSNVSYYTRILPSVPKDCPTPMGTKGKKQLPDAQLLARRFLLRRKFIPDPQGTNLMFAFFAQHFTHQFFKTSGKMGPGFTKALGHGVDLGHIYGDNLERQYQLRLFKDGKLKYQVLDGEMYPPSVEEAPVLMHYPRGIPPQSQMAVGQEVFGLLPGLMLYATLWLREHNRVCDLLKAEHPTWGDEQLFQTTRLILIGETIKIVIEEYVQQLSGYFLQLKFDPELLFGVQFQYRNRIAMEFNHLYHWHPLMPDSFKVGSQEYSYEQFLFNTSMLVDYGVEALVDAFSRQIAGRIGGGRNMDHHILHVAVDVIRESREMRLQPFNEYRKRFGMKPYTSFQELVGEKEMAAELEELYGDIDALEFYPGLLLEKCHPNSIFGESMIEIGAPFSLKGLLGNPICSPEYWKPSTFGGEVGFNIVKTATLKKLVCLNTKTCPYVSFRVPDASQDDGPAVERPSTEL

Delta-type opioid receptor, sequence (P41143 whole entry): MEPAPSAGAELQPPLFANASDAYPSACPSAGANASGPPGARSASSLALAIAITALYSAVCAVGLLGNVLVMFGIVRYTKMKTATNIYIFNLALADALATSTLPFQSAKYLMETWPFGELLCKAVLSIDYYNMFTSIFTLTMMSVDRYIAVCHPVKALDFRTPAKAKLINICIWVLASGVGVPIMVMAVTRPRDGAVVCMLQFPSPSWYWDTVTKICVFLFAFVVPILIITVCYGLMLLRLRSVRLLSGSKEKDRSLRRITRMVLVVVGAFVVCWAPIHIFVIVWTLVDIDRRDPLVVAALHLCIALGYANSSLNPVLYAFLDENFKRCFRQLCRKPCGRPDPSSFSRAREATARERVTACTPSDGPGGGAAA
Epidermal growth factor receptor, sequence (P00533 whole entry): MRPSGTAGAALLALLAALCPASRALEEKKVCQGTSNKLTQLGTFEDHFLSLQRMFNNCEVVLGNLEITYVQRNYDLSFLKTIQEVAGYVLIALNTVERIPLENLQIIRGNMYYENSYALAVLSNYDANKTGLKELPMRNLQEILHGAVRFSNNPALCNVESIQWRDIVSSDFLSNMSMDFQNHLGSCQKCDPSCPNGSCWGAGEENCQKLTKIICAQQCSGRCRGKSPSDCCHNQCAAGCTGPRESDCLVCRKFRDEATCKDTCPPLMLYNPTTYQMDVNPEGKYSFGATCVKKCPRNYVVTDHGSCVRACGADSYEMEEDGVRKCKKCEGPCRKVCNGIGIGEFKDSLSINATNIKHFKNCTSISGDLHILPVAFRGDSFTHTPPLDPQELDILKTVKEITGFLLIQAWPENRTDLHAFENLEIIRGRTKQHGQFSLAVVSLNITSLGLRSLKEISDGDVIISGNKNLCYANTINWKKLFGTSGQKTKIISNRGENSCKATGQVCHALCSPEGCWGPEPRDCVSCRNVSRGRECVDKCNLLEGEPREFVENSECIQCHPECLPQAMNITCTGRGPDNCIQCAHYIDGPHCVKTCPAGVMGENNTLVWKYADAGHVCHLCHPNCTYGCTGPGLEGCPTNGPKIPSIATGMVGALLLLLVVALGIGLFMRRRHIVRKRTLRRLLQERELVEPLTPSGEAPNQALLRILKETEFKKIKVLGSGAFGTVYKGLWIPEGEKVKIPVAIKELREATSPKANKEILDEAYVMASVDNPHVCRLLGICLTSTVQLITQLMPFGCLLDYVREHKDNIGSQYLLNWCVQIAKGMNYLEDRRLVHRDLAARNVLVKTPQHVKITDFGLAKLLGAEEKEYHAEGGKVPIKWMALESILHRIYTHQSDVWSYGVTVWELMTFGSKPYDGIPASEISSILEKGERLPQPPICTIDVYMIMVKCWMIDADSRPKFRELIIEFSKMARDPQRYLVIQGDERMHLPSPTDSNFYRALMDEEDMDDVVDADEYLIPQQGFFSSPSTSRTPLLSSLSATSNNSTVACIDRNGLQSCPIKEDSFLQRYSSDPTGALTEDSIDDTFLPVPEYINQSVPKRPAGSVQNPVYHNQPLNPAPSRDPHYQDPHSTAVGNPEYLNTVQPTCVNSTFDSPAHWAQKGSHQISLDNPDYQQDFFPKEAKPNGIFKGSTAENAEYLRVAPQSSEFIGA
Cannabinoid receptor 1, sequence (P21554 whole entry): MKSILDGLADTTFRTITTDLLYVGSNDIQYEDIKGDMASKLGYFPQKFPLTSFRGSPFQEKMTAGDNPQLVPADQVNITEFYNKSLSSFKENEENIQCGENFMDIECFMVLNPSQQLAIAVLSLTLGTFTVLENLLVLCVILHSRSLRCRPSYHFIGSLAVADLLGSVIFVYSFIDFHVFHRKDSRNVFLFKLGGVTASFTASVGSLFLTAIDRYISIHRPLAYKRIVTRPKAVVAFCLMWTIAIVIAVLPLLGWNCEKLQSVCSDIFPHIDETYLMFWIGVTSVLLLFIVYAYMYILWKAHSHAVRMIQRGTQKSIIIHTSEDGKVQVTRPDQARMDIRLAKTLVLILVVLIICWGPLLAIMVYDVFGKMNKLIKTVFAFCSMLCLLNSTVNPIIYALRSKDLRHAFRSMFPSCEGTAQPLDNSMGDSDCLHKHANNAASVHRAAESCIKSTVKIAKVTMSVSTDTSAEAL
C-C chemokine receptor type 5, sequence (P51681 whole entry): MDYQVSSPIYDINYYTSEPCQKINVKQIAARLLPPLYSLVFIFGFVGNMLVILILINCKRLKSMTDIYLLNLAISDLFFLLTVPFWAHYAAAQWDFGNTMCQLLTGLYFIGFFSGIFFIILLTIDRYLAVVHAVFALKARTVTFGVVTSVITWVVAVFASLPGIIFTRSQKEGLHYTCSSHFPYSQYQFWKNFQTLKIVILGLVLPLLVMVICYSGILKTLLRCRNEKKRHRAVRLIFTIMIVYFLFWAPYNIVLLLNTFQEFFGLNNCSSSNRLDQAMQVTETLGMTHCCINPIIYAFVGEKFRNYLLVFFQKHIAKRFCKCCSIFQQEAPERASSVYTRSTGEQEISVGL
Melanocortin receptor 5, sequence (P33032 whole entry): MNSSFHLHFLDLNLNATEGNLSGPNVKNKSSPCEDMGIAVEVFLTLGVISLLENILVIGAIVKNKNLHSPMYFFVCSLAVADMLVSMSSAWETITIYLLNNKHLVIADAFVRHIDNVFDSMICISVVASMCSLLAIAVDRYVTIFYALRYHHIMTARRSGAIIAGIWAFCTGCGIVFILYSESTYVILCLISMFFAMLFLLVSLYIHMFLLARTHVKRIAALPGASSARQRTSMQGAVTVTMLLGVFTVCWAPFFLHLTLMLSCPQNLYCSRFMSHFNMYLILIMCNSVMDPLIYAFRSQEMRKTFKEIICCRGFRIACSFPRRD
Cytochrome P450 2C9, sequence (P11712 whole entry): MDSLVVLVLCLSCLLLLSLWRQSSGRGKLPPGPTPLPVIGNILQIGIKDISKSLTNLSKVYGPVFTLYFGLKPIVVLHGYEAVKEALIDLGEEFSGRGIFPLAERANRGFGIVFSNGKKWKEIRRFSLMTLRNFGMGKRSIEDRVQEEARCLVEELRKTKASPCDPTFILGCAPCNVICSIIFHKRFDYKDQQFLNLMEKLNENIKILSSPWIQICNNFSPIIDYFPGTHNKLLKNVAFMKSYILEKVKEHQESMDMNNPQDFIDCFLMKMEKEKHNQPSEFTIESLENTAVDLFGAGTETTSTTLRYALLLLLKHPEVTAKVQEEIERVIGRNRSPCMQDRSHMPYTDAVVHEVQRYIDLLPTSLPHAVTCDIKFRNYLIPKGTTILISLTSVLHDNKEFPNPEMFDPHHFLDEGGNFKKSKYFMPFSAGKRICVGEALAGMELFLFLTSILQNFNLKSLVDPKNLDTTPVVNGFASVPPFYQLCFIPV
Kappa-type opioid receptor, sequence (P41145 whole entry): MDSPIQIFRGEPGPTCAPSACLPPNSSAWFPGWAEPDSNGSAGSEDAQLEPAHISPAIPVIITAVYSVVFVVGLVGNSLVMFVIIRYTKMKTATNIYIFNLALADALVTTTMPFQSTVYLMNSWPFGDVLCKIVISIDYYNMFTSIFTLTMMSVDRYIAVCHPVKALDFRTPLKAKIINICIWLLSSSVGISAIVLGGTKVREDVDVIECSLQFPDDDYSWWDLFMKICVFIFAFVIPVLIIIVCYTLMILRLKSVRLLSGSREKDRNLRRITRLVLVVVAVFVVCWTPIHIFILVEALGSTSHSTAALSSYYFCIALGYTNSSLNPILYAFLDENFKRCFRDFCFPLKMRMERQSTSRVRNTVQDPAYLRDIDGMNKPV

CCc1cccc2c3c([nH]c12)C(CC)(CC(=O)O)OCC3 (centres undefined) [ETODOLAC]
Not Active: IC50 [1] | Ki [1] | IC50 [2] | IC50 [3] | IC50 [4] | IC50 [5] | IC50 [6] | IC50 [7] | IC50 [8] | IC50 [9] | IC50 [10] | IC50 [11] | Ki [11] | IC50 [12] | IC50 [13] | IC50 [14] | IC50 [15]

CC[C@H](C)[C@H](N)C1=N[C@H](C(=O)N[C@@H](CC(C)C)C(=O)N[C@H](CCC(=O)O)C(=O)N[C@H](C(=O)N[C@H]2CCCCNC(=O)[C@H](CC(N)=O)NC(=O)[C@@H](CC(=O)O)NC(=O)[C@H](Cc3cnc[nH]3)NC(=O)[C@@H](Cc3ccccc3)NC(=O)[C@H]([C@@H](C)CC)NC(=O)[C@@H](CCCN)NC2=O)[C@@H](C)CC)CS1 [BACITRACIN] ({Ileψ(thiazoline)Cys}-L[dE]IK[dOrn]I[dF]H[dD]N; lactam 4-C)
Not Active: IC50 [2] | IC50 [3] | IC50 [4] | IC50 [5] | IC50 [6] | IC50 [7] | IC50 [8] | IC50 [10] | IC50 [16] | IC50 [11] | Ki [11] | IC50 [12] | IC50 [13] | IC50 [14] | IC50 [15]

Nc1nc2c(ncn2COC(CO)CO)c(=O)[nH]1 [GANCICLOVIR]
Not Active: IC50 [1] | Ki [1] | IC50 [2] | IC50 [3] | IC50 [4] | IC50 [5] | IC50 [6] | IC50 [7] | IC50 [8] | IC50 [9] | IC50 [10] | IC50 [16] | IC50 [11] | Ki [11] | IC50 [12] | IC50 [13] | IC50 [14]

COc1c(N2CCNC(C)C2)c(F)cc2c(=O)c(C(=O)O)cn(C3CC3)c12 (centres undefined) [GATIFLOXACIN]
Not Active: IC50 [1] | Ki [1] | IC50 [2] | IC50 [3] | IC50 [4] | IC50 [5] | IC50 [6] | IC50 [7] | IC50 [8] | IC50 [10] | IC50 [16] | IC50 [11] | Ki [11] | IC50 [12] | IC50 [13] | IC50 [14] | IC50 [15]

CN(C)CCCC1(c2ccc(F)cc2)OCc2cc(C#N)ccc21 (centres undefined) [CITALOPRAM]
Not Active: IC50 [1] | Ki [1] | IC50 [2] | IC50 [3] | IC50 [4] | IC50 [5] | IC50 [6] | IC50 [7] | IC50 [8] | IC50 [9] | IC50 [10] | IC50 [16] | IC50 [11] | Ki [11] | IC50 [12] | IC50 [13] | IC50 [14]

CC1COc2c(N3CCN(C)CC3)c(F)cc3c(=O)c(C(=O)O)cn1c23 (centres undefined) [OFLOXACIN]
Not Active: IC50 [1] | Ki [1] | IC50 [2] | IC50 [3] | IC50 [4] | IC50 [5] | IC50 [6] | IC50 [7] | IC50 [8] | IC50 [9] | IC50 [10] | IC50 [16] | IC50 [11] | Ki [11] | IC50 [12] | IC50 [13] | IC50 [14]

COc1ccc(CN(CCN(C)C)c2ccccn2)cc1 [PYRILAMINE]
Not Active: IC50 [1] | Ki [1] | IC50 [2] | IC50 [3] | IC50 [4] | IC50 [5] | IC50 [6] | IC50 [7] | IC50 [8] | IC50 [9] | IC50 [10] | IC50 [16] | IC50 [11] | Ki [11] | IC50 [12] | IC50 [13] | IC50 [14]

CN1C(C(=O)Nc2ccccn2)=C(O)c2ccccc2S1(=O)=O [PIROXICAM]
Not Active: IC50 [1] | Ki [1] | IC50 [2] | IC50 [3] | IC50 [4] | IC50 [5] | IC50 [6] | IC50 [7] | IC50 [8] | IC50 [9] | IC50 [10] | IC50 [11] | Ki [11] | IC50 [12] | IC50 [13] | IC50 [14] | IC50 [15]
